Results as given in patent publication US20260078135A1, “POLYCYCLIC QUINAZOLINES FOR INHIBITION OF ERBB2” (Enliven Inc., priority 2022, published 2026).
pIC50: −log10 of the molar value. Counter-ions that a name gives are not always drawn.

Legend:
[1] = molecular target: T1, phosphorylated ERBB2 (pERBB2) (Homo sapiens, UniProt P04626); assay: Detection of phosphorylated ERBB2 (pERBB2) by ELISA in BT-474 cells; assay type: cell-based; conditions: four hour incubation
T1 construct: endogenous in cells; host or cells: BT-474
Method in brief: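 BT-474 cells were treated with compounds (fourfold dilutions, 10 μM to 0.01 nM final) for 4 h at 37 °C, then lysed. pERBB2 in lysates was quantified by ELISA with an HRP anti-phosphotyrosine detection antibody and TMB read at 450 nm; % relative activity was normalized to no-cell and 0.1% DMSO controls.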

[2] = molecular target: T2, phosphorylated EGFR (pEGFR) (Homo sapiens, UniProt P00533); assay: Detection of phosphorylated EGFR (pEGFR) by AlphaLISA in EGF-stimulated A431 cells; assay type: cell-based; conditions: A431 cells (10% FBS), 4 hours incubation, EGF 30 ng/mL for 10 minutes
T2 construct: performed to measure phosphorylated EGFR levels using A431 cells (10% FBS); endogenous in cells; host or cells: A431
Method in brief: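 pEGFR was quantified by AlphaLISA in lysates of A431 cells (10% FBS) given a 10 min pulse of EGF at 30 ng/mL after 4 h compound exposure at 37 °C. IC50 came from a four-parameter fit of % inhibition between DMSO and staurosporine controls.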

Ba/F3 ERBB2 YVMA = Ba/F3 ERBB2 YVMA (Homo sapiens, UniProt P04626, DUP772-775, cells depend on it); assay: Cell viability assay (CellTiter Glo), Ba/F3 cells engineered to express ERBB2 YVMA; assay type: cell-based, mouse; conditions: Ba/F3 cells expressing human ERBB2 YVMA mutant, 72 hours, read-out: Ba/F3 ERBB2 YVMA, IC50
Experimental: Cells were treated with compounds, and cell viability was measured as a metric of kinase inhibition.
BT-474, A431, MDA-MB-175VII, NCI-H1781, MCF7, and Ba/F3 cell lines were tested. The Ba/F3 cell line is IL-3-dependent mouse cell line derived from the C3H mouse strain. Ba/F3 cell lines were engineered to express human ERBB2 or EGFR kinases, rendering the cells IL-3 independent. The lines were generated via retroviral transduction utilizing a Moloney murine leukemia virus (MMLV) promoter, and constructs are stably integrated into the cell genome. The sequences of the ERBB2 and EGFR genes used were NCBI Reference Sequences NM_004448.3 and NM_005228.3, respectively.
BT-474, A431, MDA-MB-175VII, NCI-H1781 and MCF7 cells were grown in the appropriate growth medium as described in Table B2 below, and harvested at 50-80% confluence. BT-474, A431, MDA-MB-175VII, NCI-H1781 and MCF7 cells were counted and seeded at 2,000 or 1,500 cells per well in 384-well tissue culture plates (see Table B2). Similarly, Ba/F3 cell lines engineered to express EGFR, ERBB2, or ERBB2 mutants were grown, harvested, counted and seeded at 3000 cells per well in 96-well plates. A subset of wells contained media only (low control, “LC”).
Table B1 provides the growth media and number of cells seeded per well for the each cell line.
Compounds were dissolved in DMSO and serially diluted. Serially-diluted compound or a DMSO only control (high control, “HC”) was added to the plated cells in each well. Compounds were tested at concentrations of about 10 μM to 0.51 nM, using three-fold dilutions. The final proportion of DMSO never exceeded 0.1%.
Plates were placed in a 37° C., 5% CO2 incubator for 72 hours. Plates were then removed from the incubator and equilibrated for 15 minutes at room temperature. 40 μl of CellTiter Glo reagent (Promega) was added to measure the relative level of metabolically active cells by quantifying intracellular ATP concentrations. Plates were incubated for 30 minutes at room temperature, and luminescence was measured. Percent viability was normalized to a vehicle control only using the following formula: % viability=100×(Lumsample−LumLC)/(LumHC−LumLC). Graphical curves were fitted using a nonlinear regression model with a sigmoidal dose response.

T2 sequence (P00533 25-1210): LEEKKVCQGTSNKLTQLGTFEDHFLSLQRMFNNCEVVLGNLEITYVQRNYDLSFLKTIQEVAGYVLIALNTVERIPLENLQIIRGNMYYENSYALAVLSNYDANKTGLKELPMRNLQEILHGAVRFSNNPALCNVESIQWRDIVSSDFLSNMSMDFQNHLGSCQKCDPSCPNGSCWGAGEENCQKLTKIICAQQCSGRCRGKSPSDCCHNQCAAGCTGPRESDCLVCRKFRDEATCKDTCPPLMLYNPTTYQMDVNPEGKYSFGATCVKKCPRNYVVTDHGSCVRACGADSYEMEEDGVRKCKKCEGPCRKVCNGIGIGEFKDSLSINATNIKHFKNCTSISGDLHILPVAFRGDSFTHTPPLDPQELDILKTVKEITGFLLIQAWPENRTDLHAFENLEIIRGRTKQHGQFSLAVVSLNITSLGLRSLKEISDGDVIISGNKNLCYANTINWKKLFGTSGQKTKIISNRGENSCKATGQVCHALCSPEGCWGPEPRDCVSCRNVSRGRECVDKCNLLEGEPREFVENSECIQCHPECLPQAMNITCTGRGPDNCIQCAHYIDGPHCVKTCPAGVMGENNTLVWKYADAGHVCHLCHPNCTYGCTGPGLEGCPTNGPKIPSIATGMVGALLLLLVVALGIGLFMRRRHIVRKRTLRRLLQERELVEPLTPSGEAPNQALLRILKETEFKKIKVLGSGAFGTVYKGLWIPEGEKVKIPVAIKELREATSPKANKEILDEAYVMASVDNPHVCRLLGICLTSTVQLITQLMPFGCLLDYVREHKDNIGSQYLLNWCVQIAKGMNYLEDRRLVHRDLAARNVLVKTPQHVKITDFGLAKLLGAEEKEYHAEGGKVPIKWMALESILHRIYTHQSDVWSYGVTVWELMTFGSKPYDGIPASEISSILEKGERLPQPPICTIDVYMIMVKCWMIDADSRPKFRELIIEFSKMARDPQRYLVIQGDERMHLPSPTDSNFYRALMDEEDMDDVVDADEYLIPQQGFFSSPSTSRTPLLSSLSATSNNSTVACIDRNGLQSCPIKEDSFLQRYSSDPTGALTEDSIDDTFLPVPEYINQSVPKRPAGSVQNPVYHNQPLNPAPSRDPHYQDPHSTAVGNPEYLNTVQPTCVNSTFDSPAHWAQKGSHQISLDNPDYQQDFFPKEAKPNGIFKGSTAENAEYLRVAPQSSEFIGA
T1 sequence (P04626 23-1255): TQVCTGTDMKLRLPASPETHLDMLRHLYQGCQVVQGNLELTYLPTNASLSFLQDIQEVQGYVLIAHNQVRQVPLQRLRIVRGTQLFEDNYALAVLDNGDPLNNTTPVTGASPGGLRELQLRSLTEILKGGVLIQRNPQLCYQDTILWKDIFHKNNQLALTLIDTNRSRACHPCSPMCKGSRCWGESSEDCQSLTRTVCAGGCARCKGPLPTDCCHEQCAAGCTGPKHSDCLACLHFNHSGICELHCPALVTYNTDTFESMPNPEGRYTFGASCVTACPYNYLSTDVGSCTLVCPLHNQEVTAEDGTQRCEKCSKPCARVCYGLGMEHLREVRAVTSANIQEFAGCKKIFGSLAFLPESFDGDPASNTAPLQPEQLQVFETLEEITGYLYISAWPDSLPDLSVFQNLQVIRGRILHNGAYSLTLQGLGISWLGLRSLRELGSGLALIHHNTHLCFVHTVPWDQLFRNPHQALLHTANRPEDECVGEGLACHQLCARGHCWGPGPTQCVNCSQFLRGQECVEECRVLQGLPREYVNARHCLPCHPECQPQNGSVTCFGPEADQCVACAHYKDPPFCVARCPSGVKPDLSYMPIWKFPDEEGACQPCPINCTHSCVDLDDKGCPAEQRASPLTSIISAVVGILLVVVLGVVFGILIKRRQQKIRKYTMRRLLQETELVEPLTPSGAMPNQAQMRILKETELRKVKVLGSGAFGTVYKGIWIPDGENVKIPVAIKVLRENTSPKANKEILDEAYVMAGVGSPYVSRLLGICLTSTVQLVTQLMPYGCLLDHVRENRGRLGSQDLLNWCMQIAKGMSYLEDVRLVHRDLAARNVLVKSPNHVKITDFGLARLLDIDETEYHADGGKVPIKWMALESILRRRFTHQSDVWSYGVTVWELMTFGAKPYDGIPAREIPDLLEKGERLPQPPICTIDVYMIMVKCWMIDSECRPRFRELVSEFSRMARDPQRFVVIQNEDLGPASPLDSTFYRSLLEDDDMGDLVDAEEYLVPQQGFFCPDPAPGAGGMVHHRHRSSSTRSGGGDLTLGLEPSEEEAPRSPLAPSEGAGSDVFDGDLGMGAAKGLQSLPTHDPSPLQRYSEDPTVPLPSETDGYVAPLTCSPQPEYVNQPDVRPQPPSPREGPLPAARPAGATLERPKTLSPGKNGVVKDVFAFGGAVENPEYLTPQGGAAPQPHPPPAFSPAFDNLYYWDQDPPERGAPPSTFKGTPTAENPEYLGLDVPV
Ba/F3 ERBB2 YVMA, sequence (P04626 with tags, fused parts or gaps DUP772-775): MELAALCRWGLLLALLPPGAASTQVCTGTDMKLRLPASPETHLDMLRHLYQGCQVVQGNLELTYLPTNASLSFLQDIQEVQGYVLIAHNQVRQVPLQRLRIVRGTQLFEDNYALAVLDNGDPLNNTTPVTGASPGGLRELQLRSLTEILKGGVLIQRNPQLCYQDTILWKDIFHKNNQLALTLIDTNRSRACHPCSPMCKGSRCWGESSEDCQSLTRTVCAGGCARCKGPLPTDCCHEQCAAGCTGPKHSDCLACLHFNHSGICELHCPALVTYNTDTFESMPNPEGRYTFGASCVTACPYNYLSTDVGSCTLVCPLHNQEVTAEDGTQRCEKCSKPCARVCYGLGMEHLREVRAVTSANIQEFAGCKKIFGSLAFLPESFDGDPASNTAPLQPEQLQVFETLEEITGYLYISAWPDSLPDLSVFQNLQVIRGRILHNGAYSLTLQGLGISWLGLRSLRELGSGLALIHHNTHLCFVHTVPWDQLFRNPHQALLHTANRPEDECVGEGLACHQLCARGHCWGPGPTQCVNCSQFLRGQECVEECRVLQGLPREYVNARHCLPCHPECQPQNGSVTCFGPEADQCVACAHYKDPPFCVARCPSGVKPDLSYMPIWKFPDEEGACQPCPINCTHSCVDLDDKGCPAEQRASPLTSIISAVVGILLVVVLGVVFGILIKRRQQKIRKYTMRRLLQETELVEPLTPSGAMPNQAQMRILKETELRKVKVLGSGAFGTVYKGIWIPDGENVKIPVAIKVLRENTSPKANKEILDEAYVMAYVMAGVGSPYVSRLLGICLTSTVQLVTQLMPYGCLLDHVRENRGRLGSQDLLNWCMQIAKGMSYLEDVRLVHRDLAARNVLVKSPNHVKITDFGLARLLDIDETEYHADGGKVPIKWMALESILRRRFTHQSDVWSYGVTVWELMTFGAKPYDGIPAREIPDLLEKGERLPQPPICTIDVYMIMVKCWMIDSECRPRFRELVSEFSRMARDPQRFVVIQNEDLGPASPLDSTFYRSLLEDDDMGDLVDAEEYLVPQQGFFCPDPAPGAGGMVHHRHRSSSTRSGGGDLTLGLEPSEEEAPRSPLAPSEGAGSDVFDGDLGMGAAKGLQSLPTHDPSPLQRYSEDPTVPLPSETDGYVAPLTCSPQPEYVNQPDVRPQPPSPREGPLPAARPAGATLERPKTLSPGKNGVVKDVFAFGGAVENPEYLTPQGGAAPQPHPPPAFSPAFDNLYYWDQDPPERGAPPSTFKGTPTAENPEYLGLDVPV

## Cc1cc(Nc2ncnc3ccc4c(c23)O[C@H]2CCN(C)C[C@@H]2N4)ccc1Oc1ccc2c(c1)ncn2C (relative stereo) [Compound 126, trans-9-methyl-N-(3-methyl-4-((1-methyl-1H-benzo[d]imidazol-5-yl)oxy)phenyl)-7a,8,9,10,11,11a-hexahydro-7H-pyrido[3′,4′:5,6][1,4]oxazino[2,3-f]quinazolin-1-amine]
[1]
  pIC50: 7.21
[2]
  pIC50: < 5.00
Ba/F3 ERBB2 YVMA
  GI50: 140 nM

## Cc1cc(Nc2ncnc3cc4c(nc23)N2CCN(C(=O)/C=C/CN(C)C)C[C@H]2CO4)ccc1Oc1ccn2ncnc2c1 [Compound 16, (S,E)-1-(11-((4-([1,2,4]triazolo[1,5-a]pyridin-7-yloxy)-3-methylphenyl)amino)-1,2,4a,5-tetrahydropyrazino[1,2-d]pyrimido[4′,5′:5,6]pyrido[3,2-b][1,4]oxazin-3(4H)-yl)-4-(dimethylamino)but-2-en-1-one]
[1]
  pIC50: 8.24
[2]
  pIC50: 6.89
Ba/F3 ERBB2 YVMA
  GI50: 1.47 nM

## C=CC(=O)N1CCN2c3nc4c(Nc5ccc(Oc6ccn7ncnc7c6)c(C)c5)ncnc4cc3OC[C@@H]2C1 [Compound 1, (S)-1-(11-((4-([1,2,4]triazolo[1,5-a]pyridin-7-yloxy)-3-methylphenyl)amino)-1,2,4a,5-tetrahydropyrazino[1,2-d]pyrimido[4′,5′:5,6]pyrido[3,2-b][1,4]oxazin-3(4H)-yl)prop-2-en-1-one]
[1]
  pIC50: 8.24
[2]
  pIC50: 7.07
Ba/F3 ERBB2 YVMA
  GI50: 1.6 nM

## Cc1cc(Nc2ncnc3ccc4c(c23)OC[C@@H]2CN(C(=O)/C=C/CN(C)C)CCN42)ccc1Oc1ccn2ncnc2c1 [Compound 19, (S,E)-1-(4-((4-([1,2,4]triazolo[1,5-a]pyridin-7-yloxy)-3-methylphenyl)amino)-6a,7,9,10-tetrahydropyrazino[1′,2′:4,5][1,4]oxazino[2,3-f]quinazolin-8(6H)-yl)-4-(dimethylamino)but-2-en-1-one formate]
[1]
  pIC50: 7.95
[2]
  pIC50: 6.17
Ba/F3 ERBB2 YVMA
  GI50: 5 nM

## Cc1cc(Nc2ncnc3ccc4c(c23)OC[C@H]2CN(C(=O)/C=C/CN(C)C)CCN42)c(F)cc1Oc1ccn2ncnc2c1 [Compound 116, (R,E)-1-(4-((4-([1,2,4]triazolo[1,5-a]pyridin-7-yloxy)-2-fluoro-5-methylphenyl)amino)-6a,7,9,10-tetrahydropyrazino[1′,2′:4,5][1,4]oxazino[2,3-f]quinazolin-8(6H)-yl)-4-(dimethylamino)but-2-en-1-one]
[1]
  pIC50: 7.96
[2]
  pIC50: 6.24
Ba/F3 ERBB2 YVMA
  GI50: 14 nM

## Cc1cc(Nc2ncnc3ccc4c(c23)OC[C@@H]2CN4CCN2C(=O)/C=C/CN(C)C)ccc1Oc1ccn2ncnc2c1 [Compound 26, (E)-1-((3S)-13-((4-([1,2,4]triazolo[1,5-a]pyridin-7-yloxy)-3-methylphenyl)amino)-2,3,5,6-tetrahydro-4H-3,7-methano[1,4,7]oxadiazonino[2,3-f]quinazolin-4-yl)-4-(dimethylamino)but-2-en-1-one]
[1]
  pIC50: 6.36
[2]
  pIC50: < 5.00
Ba/F3 ERBB2 YVMA
  GI50: > 500 nM

## C=CC(=O)N1CCN2c3ccc4ncnc(Nc5ccc(Oc6ccn7ncnc7c6)c(C)c5)c4c3OC[C@H]2C1 [Compound 6, (R)-1-(4-((4-([1,2,4]triazolo[1,5-a]pyridin-7-yloxy)-3-methylphenyl)amino)-6a,7,9,10-tetrahydropyrazino[1′,2′:4,5][1,4]oxazino[2,3-f]quinazolin-8(6H)-yl)prop-2-en-1-one]
[1]
  pIC50: 8.14
[2]
  pIC50: 6.27
Ba/F3 ERBB2 YVMA
  GI50: 6.23 nM

## Cc1cc(Nc2ncnc3cnc4c(c23)OC[C@H]2CN(C(=O)/C=C/CN(C)C)CCN42)c(F)cc1Oc1ccn2ncnc2c1 [Compound 117, (R,E)-1-(4-((4-([1,2,4]triazolo[1,5-a]pyridin-7-yloxy)-2-fluoro-5-methylphenyl)amino)-6a,7,9,10-tetrahydropyrazino[1,2-d]pyrimido[5′,4′:4,5]pyrido[3,2-b][1,4]oxazin-8(6H)-yl)-4-(dimethylamino)but-2-en-1-one]
[1]
  pIC50: 7.88
[2]
  pIC50: 5.82
Ba/F3 ERBB2 YVMA
  GI50: 6.57 nM

## Cc1cc(Nc2ncnc3ccc4c(c23)O[C@@H]2CCNC[C@@H]2N4C)ccc1Oc1ccc2c(c1)ncn2C [Compound 134, (7aS,11aR)-7-methyl-N-(3-methyl-4-((1-methyl-1H-benzo[d]imidazol-5-yl)oxy)phenyl)-7a,8,9,10,11,11a-hexahydro-7H-pyrido[3′,4′:5,6][1,4]oxazino[2,3-f]quinazolin-1-amine]
[1]
  pIC50: 6.95
[2]
  pIC50: 6.14
Ba/F3 ERBB2 YVMA
  GI50: > 500 nM

## Cc1cc(Nc2ncnc3cc4c(cc23)N2CCN(C(=O)/C=C/CN(C)C)C[C@@H]2CO4)ccc1Oc1ccc2c(c1)ncn2C [Compound 12, (R,E)-4-(dimethylamino)-1-(11-((3-methyl-4-((1-methyl-1H-benzo[d]imidazol-5-yl)oxy)phenyl)amino)-1,2,4a,5-tetrahydropyrazino[1′,2′:4,5][1,4]oxazino[3,2-g]quinazolin-3(4H)-yl)but-2-en-1-one]
[1]
  pIC50: 7.08
[2]
  pIC50: 5.55
Ba/F3 ERBB2 YVMA
  GI50: 206 nM

## CC#CC(=O)N1CCN2c3nc4c(Nc5ccc(Oc6ccn7ncnc7c6)c(C)c5)ncnc4cc3OC[C@@H]2C1 [Compound 32, (S)-1-(11-((4-([1,2,4]triazolo[1,5-a]pyridin-7-yloxy)-3-methylphenyl)amino)-1,2,4a,5-tetrahydropyrazino[1,2-d]pyrimido[4′,5′:5,6]pyrido[3,2-b][1,4]oxazin-3(4H)-yl)but-2-yn-1-one]
[1]
  pIC50: 7.29
[2]
  pIC50: 5.32
Ba/F3 ERBB2 YVMA
  GI50: 18.3 nM

## Cc1cc(Nc2ncnc3cnc4c(c23)OC[C@H]2COCCN42)ccc1Oc1ccc2c(c1)ncn2C [Compound 122, (R)—N-(3-methyl-4-((1-methyl-1H-benzo[d]imidazol-5-yl)oxy)phenyl)-6a,7,9,10-tetrahydro-6H-[1,4]oxazino[4,3-d]pyrimido[5′,4′:4,5]pyrido[3,2-b][1,4]oxazin-4-amine]
[1]
  pIC50: 7.58
[2]
  pIC50: < 5.00
Ba/F3 ERBB2 YVMA
  GI50: 30.9 nM

## C=CC(=O)N1CCN2C[C@H]1COc1c2ccc2ncnc(Nc3ccc(Oc4ccc5c(c4)ncn5C)c(C)c3)c12 [Compound 28, 1-((3S)-13-((3-methyl-4-((1-methyl-1H-benzo[d]imidazol-5-yl)oxy)phenyl)amino)-2,3,5,6-tetrahydro-4H-3,7-methano[1,4,7]oxadiazonino[2,3-f]quinazolin-4-yl)prop-2-en-1-one]
[1]
  pIC50: 6.38
[2]
  pIC50: < 5.00
Ba/F3 ERBB2 YVMA
  GI50: > 500 nM

## CN(C)C/C=C/C(=O)N1CCN2c3ccc4ncnc(Nc5cc(F)c(Oc6ccn7ncnc7c6)cc5F)c4c3OC[C@H]2C1 [Compound 97, (R,E)-1-(4-((4-([1,2,4]triazolo[1,5-a]pyridin-7-yloxy)-2,5-difluorophenyl)amino)-6a,7,9,10-tetrahydropyrazino[1′,2′:4,5][1,4]oxazino[2,3-f]quinazolin-8(6H)-yl)-4-(dimethylamino)but-2-en-1-one]
[1]
  pIC50: 7.82
[2]
  pIC50: 5.09
Ba/F3 ERBB2 YVMA
  GI50: 3.6 nM

## Cc1cc(Nc2ncnc3ccc4c(c23)O[C@@H]2CCN(C)C[C@@H]2N4C)ccc1Oc1ccc2c(c1)ncn2C [Compound 123, (7aS,11aR)-7,9-dimethyl-N-(3-methyl-4-((1-methyl-1H-benzo[d]imidazol-5-yl)oxy)phenyl)-7a,8,9,10,11,11a-hexahydro-7H-pyrido[3′,4′:5,6][1,4]oxazino[2,3-f]quinazolin-1-amine]
[2]
  pIC50: < 5.00
Ba/F3 ERBB2 YVMA
  GI50: 46.4 nM

## Cc1cc(Nc2ncnc3ccc4c(c23)O[C@@H]2CCN(C)C[C@@H]2N4C)ccc1Oc1ccc2c(c1)ncn2C [Compound 129, (7aS,11aR)-7,9-dimethyl-N-(3-methyl-4-((1-methyl-1H-benzo[d]imidazol-5-yl)oxy)phenyl)-7a,8,9,10,11,11a-hexahydro-7H-pyrido[3′,4′:5,6][1,4]oxazino[2,3-f]quinazolin-1-amine]
[2]
  pIC50: < 5.00
Ba/F3 ERBB2 YVMA
  GI50: 111 nM
